# Columns and labels:
# Format in all cases: in vivo, human
# [1] = system: Product Of Calcium And Phosphorus; assay: Phase 3 trial (Example 1): phosphorus times calcium product
# Method: (§1) Serum phosphorus and calcium were performed at Screening (Visit 0); weekly during the Washout Period after Visit 1 (Week −2); at Visit 4 (Randomization Visit); at Visits 5 (Week 1), 6 (Week 2), 7 (Week 4), 8 (Week 6), 9 (Week 8), 10 (Week 10), 11 (Week 12), 12 (Week 16), 13 (Week 20), 14 (Week 24), 15 (Week 28), 16 (Week 32), 17 (Week 36), 18 (Week 40), 19 (Week 44), 20 (Week 48), and 21 (Week 52) of the 52-week Safety Assessment Period; and at Visits 22 (Week 53), 23 (Week 54), 24 (Week 55) and 25 (Week 56) of the Efficacy Assessment Period.
# (§2) These variables will be analyzed using LOCF methodology. ANCOVA will be employed. The model will include treatment (fixed effect), and Visit-4 baseline (covariate). An analysis using MMRM method will be conducted as a sensitivity analysis. The least square mean estimates of the treatment effects as well as the 2-sided 95% confidence intervals (CI) of the treatment effects will be derived.
# (§3) • 1. Change in serum calcium concentration at Weeks 12, 24, 36, 48, and 52 as compared to baseline (Visit 4). This variable will be analyzed using LOCF methodology. ANCOVA will be employed. The model will include treatment (fixed effect), and baseline (covariate). • 2. Change in ferritin, and TSAT at Weeks 12, 24, 36 and 48 as compared to baseline (Visit 4). This variable will be analyzed using LOCF methodology. ANCOVA will be employed. The model will include treatment (fixed effect), and baseline (covariate). • 3. Change in serum iron and TIBC at Weeks 12, 24, 36, 48, and 52 as compared to baseline (Visit 4). This variable will be analyzed using LOCF methodology. ANCOVA will be employed. The model will include treatment (fixed effect), and baseline (covariate). • 4. Change in Ca x P product at Weeks 12, 24, 36, 48, and 52 as compared to baseline (Visit 4). This variable will be analyzed using LOCF methodology. ANCOVA will be employed. The model will include treatment (fixed effect), and baseline (covariate). • 5. Change in iPTH at Weeks 12, 36, 52, and 56 as compared to baseline (Visit 4). This variable will be analyzed using LOCF methodology. ANCOVA will be employed. The model will include treatment (fixed effect), and baseline (covariate). • 6. Change in serum […], vitamin A, vitamin B-12, vitamin E, vitamin K and folic acid at Weeks 12, 36, and 52 as compared to baseline (Visit 4). This variable will be analyzed using LOCF methodology. ANCOVA will be employed. The model will include treatment (fixed effect), and baseline (covariate). • 7. Change in serum bicarbonate concentration at Weeks 12, 36, and 52 as compared to baseline (Visit 4). This variable will be analyzed using LOCF methodology. ANCOVA will be employed. The model will include treatment (fixed effect), and baseline (covariate). • 8. Change in IV iron intake at Weeks 12, 24, 36, 48, and 52 as compared to baseline (Visit 4). This variable will be analyzed using LOCF methodology. ANCOVA will be employed. The model will include treatment (fixed effect), and baseline (covariate). • 9. Change in the use of EPO (ESA) administered at Weeks 12, 24, 36, 48, and 52 as compared to baseline (Visit 4). This variable will be analyzed using LOCF methodology. ANCOVA will be employed. The model will include treatment (fixed effect), and baseline (covariate). • 10. Change in the use of Vitamin D supplementation (and its analogs) and Sensipar (cinacalcet) at Weeks 12, 24, 36, 48, and 52 as compared to baseline (Visit 4). This variable will be analyzed using LOCF methodology. ANCOVA will be employed. The model will include treatment (fixed effect), and baseline (covariate). • 11. Change in LDL, HDL, and triglycerides at Weeks 12, 36, and 52 as compared to baseline (Visit 4). This variable will be analyzed using LOCF methodology. ANCOVA will be employed. The model will include treatment (fixed effect), and baseline (covariate).
# serum calcium = assay: Phase 3 trial (Example 1): serum calcium
# Method: as §1, §2, §3
# TSAT = assay: Phase 2 trial (Example 2): TSAT
# Excerpt: (§4) Change in serum phosphorus, ferritin and TSAT levels from baseline to end of treatment after 12 weeks are the primary endpoints.
# (§5) The co-primary efficacy endpoints of this trial were the mean changes in serum phosphorus and TSAT from baseline to the end of the 12-week treatment period versus placebo in the ITT group.
# [2] = Phase 3 trial (Example 1): hospitalizations, cardiac severe adverse events
# Method: Safety was assessed by recording and monitoring adverse events, concomitant medication use, physical examinations, and sequential blood by treatment assignment. Rates of adverse events were summarized overall and by organ system class, preferred term, severity, and suspected relationship to study drug by treatment assignment. AEs were summarized for the Washout Period, Safety Assessment Period, and Efficacy Assessment Period separately by treatment assignment. The changes from baseline in laboratory parameters over time were summarized by treatment assignment.
# serum phosphorus = assay: Phase 2 trial in anemic Stage III to V CKD subjects not on dialysis (Example 2): serum phosphorus
# Method: This trial is a three-period clinical trial consisting of a screening period, a two-week washout period, and a 12-week treatment period.
# If a subject has a serum phosphorus ≥6.0 mg/dL for at least two visits in a row during the 12-week treatment period, the subject is considered a treatment failure, stops study drug and exits the study.
# The target level for serum phosphorus is 3.0 to 4.0 mg/dL. Subjects are titrated as follows: • 1. If serum phosphorus is at target (3.0 to 4.0 mg/dL), no adjustment in dose is required. • 2.
# as §4, §5
# [3] = Week 12, control = sevelamer carbonate as a single agent
# [4] = Week 12, last observation carried forward, ITT group, n = 72
# [5] = Active Control n = 149, Ferric Citrate n = 289
# [6] = Ferric Citrate vs Active Control
# [7] = percent of patients, Ferric Citrate N = 289, Active Control N = 149
substance,measurement,setting,value
"iron (+3), x (1, 2, 3-propanetricarboxylic acid, 2-hydroxy-), y (H2O) [KRX-0502]","Product Of Calcium And Phosphorus, Mean","[1]; Baseline, Table 12",65.4075
same,"Product Of Calcium And Phosphorus, Median","[1]; Baseline, Table 12",62.7000
same,"Product Of Calcium And Phosphorus, Week 12 Change from Baseline, Mean",[1]; Table 12,−16.5635
same,"Product Of Calcium And Phosphorus, Week 12 Change from Baseline, Median",[1]; Table 12,−16.7400
same,"Product Of Calcium And Phosphorus, LS Mean","[1]; Week 12, ANCOVA, Table 12",48.97
same,"Product Of Calcium And Phosphorus, Mean","[1]; Week 12, Table 12",48.8440
same,"Product Of Calcium And Phosphorus, Median","[1]; Week 12, Table 12",47.5000
same,"Product Of Calcium And Phosphorus, Treatment Differences, LS Mean (KRX-0502) − LS Mean (Control)",[1]; [3],1.45
same,"Calcium, Mean","serum calcium; Baseline, Table 12",8.843 mg/dL
same,"Calcium, Median","serum calcium; Baseline, Table 12",8.900 mg/dL
same,"Calcium, Week 12 Change from Baseline, Mean",serum calcium; Table 12,0.245 mg/dL
same,"Calcium, Week 12 Change from Baseline, Median",serum calcium; Table 12,0.200 mg/dL
same,"Calcium, LS Mean","serum calcium; Week 12, ANCOVA, Table 12",9.11 mg/dL
same,"Calcium, Mean","serum calcium; Week 12, Table 12",9.089 mg/dL
same,"Calcium, Median","serum calcium; Week 12, Table 12",9.100 mg/dL
same,"Calcium, Treatment Differences, LS Mean (KRX-0502) − LS Mean (Control)",serum calcium; [3],-0.04 mg/dL
same,"TSAT, Baseline","TSAT; Baseline, ITT group, n = 72",22%
same,"TSAT, End of Treatment (Week 12)",TSAT; [4],32%
same,ending TSAT level at Visit 11 (Week 12),TSAT; sample size assumption,approximately 25%
same,Average Hospitalizations per Subject,[2]; [5],0.63
same,"Subjects with One or More Hospitalizations, % of Study Subjects",[2]; [5],34.6%
same,Total Hospitalizations,[2]; [5],181
same,"Average Hospitalizations per Subject, % Improvement",[2]; [6],24.1%
same,"Average Hospitalizations per Subject, Difference",[2]; [6],−0.20
same,"Subjects with One or More Hospitalizations, Relative % Difference","[2]; Ferric Citrate vs Active Control, p = 0.024",−24.2%
same,hospitalizations related to cardiac severe adverse events,[2]; as compared to Active Control,able to reduce hospitalizations related to cardiac severe adverse events
same,Subjects with One or More Hospitalizations,"[2]; number of subjects, Active Control n = 149, Ferric Citrate n = 289",100
same,"Cardiac Disorders, %",[2]; [7],4.8%
same,"Gastrointestinal Disorders, %",[2]; [7],6.2%
same,"Infections, %",[2]; [7],12.1%
same,"Mean Serum Phosphorus, Baseline","serum phosphorus; Baseline, ITT group, n = 72",4.5 mg/dL
same,"Mean Serum Phosphorus, End of Treatment (Week 12)",serum phosphorus; [4],3.9 mg/dL
same,"co-primary (serum phosphorus, TSAT) and key secondary endpoints (ferritin, hemoglobin, FGF-23)","serum phosphorus; mean changes baseline to end of 12-week treatment vs placebo, ITT, 141 subjects",met both co-primary and all key secondary endpoints with highly statistically significant results
same,ending serum phosphorus at Visit 11 (Week 12),serum phosphorus; sample size assumption,approximately 4.3 mg/dL

# Source: patent US20250360167A1 (Keryx Biopharmaceuticals, Inc., priority 2013, published 2025)
